What all share (format): in vivo
The test system of experiment [1] is “Momotaro” tomato. Briefly: Example 4 salt stress tolerance imparting test (tomato, tap water + NaCl). The settings on record: tap water + NaCl 3510 ppm, 2 weeks. An excerpt:
NaCl concentration 3510 ppm (water potential by NaCl: […]) (4) Cultivation period: two weeks (5) Plant preparation: A 50-cell tray was filled with Kureha gardening soil manufactured by Kureha Corporation (fertilizer components: N:P:K=0.4:1.9:0.6 g/kg soil), and seeds of a “Momotaro” tomato were sowed, thinly covered with Kureha gardening soil, and sufficiently irrigated to allow the seeds to sprout. When the leaves in the 2-leaf stage fully unfolded, the soil on the tomato roots was carefully washed away with running water, and a test was performed. (6) The chemicals used and the concentration of a treatment solution were as in Example 1 (7) Amount of application: 10 ml/specimen for leaf spraying, 50 ml/specimen for fertigation Method of Salt Stress Tolerance Imparting Test […]

Experiment [2] concerns “Momotaro” tomato. Briefly: Example 1 salt stress tolerance imparting test (tomato, hydroponic, Otsuka 1/2A + NaCl). The following applies: 2 weeks. The procedure:
(1) Salt stress-free test conditions: NaCl concentration (water potential by Nan): 0 ppm (0 MPa). Other cultivation conditions were as the same as the conditions of the drying stress test.
When the leaves in the 2-leaf stage fully unfolded, the soil on the tomato roots was carefully washed away with running water, and a test was performed.
Method of Salt Stress Tolerance Imparting Test
The environmental conditions in a climatic chamber were controlled so as to have a temperature of 23° C., an illuminance by a fluorescent light of 5000 Lux, and a daily light-dark cycle of a 16-hour light period and an 8-hour dark period. […] A treatment solution containing a compound of Table 1 in a specific concentration (the remainder was water) was prepared and sprayed onto the leaves or applied to the underground portion. In addition, a control plot to which no NaCl was added, not imposing a salt stress (this is a control plot for plant body weight 2 for Formula (ii) and is a stress-free control plot) and a control plot to which NaCl was added in various concentrations, imposing a salt stress, and to which the treatment solution was not applied (this is a control plot for plant body weight 1 for Formula (ii) and is a control plot including a salt stress) were prepared as controls. Ten specimens were prepared for each of the test plot and the control plots, and a plant stress level and an extent of imparting plant stress tolerance were calculated according to Formulas (II) above using as a fresh plant body weight the average of the fresh plant body weights of each specimen 2 weeks after the beginning of the test.

Experiment [3] has as its system “Momotaro” tomato. Kind of experiment: Example 2 temperature stress tolerance imparting test (tomato). The following applies: 2 weeks. The procedure:
Other cultivation conditions were the same as the conditions of the temperature stress test. […] (2) Solution culture medium: […] Method of Temperature Stress Tolerance Imparting Test The temperature in a climatic chamber was controlled so as to be 10, 15, or 32° C. The environmental conditions were controlled so as to have an illuminance by a fluorescent light of 5000 Lux and a daily light-dark cycle of a 16-hour light period and a 8-hour dark period. In this test, a temperature of 23° C. at which the optimum growth was observed was regarded as a reference temperature (temperature stress-free test condition), and a stress was imposed by applying a temperature higher or lower than the reference temperature. A tomato as prepared above was planted in a 250 ml polyethylene bottle filled with the solution culture medium (½ Otsuka A formulation). A treatment solution as presented in Table 1 was sprayed onto the leaves or applied to the underground portion. […] Ten specimens were prepared for each of the test plot and the control plots, and a plant stress level and an extent of imparting plant stress tolerance were calculated according to Formula (ii) and (iii) above using as a fresh plant body weight the average of the fresh plant body weights of each specimen 2 weeks after the beginning of the test.

The test system of experiment [4] is Potato Variety: Toyoshiro. Kind of experiment: Example 5 drying stress tolerance imparting test (potato variety Toyoshiro). The following applies: 3 weeks. The procedure: Other cultivation conditions were the same as the conditions of the drying stress test. Drying stress conditions: soil pF value: 2.3, 2.5, or 2.9, cultivation temperature: 23° C., relative humidity: 50%, illuminance: 5000 Lux (fluorescent light), light/dark cycle: 16 hours/8 hours (2) Cultivation Period: 3 weeks (3) Soil: Kureha gardening soil manufactured by Kureha Corporation (fertilizer components: N:P:K=0.4:1.9:0.6 g/kg soil) (4) The chemicals used and the amount of a treatment solution applied were the same as in Example 3. Method of Drying Stress Tolerance Imparting Test A planter (60 cm) was filled with Kureha gardening soil manufactured by Kureha Corporation (fertilizer components: N:P:K=0.4:1.9:0.6 g/kg soil) in a glass greenhouse, tubers of a “Thyoshiro” potato were cut in half: and 5 pieces thereof were planted in the planter, thinly covered with Kureha gardening soil, and sufficiently watered to allow the tubers to sprout. When the leaves in the 3-leaf stage fully unfolded, the Solarium tuberosu was relocated on a plant culture rack in an air-conditioned room, and a test was initiated. […] From immediately after the beginning of the test, a treatment solution of Table 1 was sprayed onto the leaves or applied to the underground portions once a week. […] Five specimens (per planter) were prepared for each of the test plot and the control plots, plant bodies were collected 3 weeks after the beginning of the test such that the roots were not cut, the soil was washed away with running water, the fresh plant body weights were measured, and a plant stress level and an extent of imparting plant stress tolerance were calculated according to Formula (ii) and (iii) above using the average of the weights.

Experiment [5] deals with “Momotaro” tomato. Briefly: Example 3 drying stress tolerance imparting test (tomato). The following applies: 3 weeks. The procedure: Other cultivation conditions were as with the conditions of the drying stress test. Drying stress conditions: soil pF value: 2.3, 2.5, or 2.9, cultivation temperature: 23° C., relative humidity: 50%, illuminance: 5000 Lux (fluorescent light), light/dark cycle: 16 hours/8 hours (2) Cultivation period: 3 weeks (3) Soil: Kureha gardening soil manufactured by Kureha Corporation (fertilizer components: N:P:K=0.4:1.9:0.6 g/kg soil) (4) Plant preparation: A 50-cell tray was filled with Kureha gardening soil manufactured by Kureha Corporation (fertilizer components: N:P:K=0.4:1.9:0.6 g/kg soil), and seeds of a “Momotaro” tomato were sowed, thinly covered with Kureha gardening soil, and sufficiently watered to allow the seeds to sprout. When the leaves in the 2-leaf stage fully unfolded, the soil on the tomato roots was carefully washed away with running water, and a test was performed. (5) The chemicals used and the amount of a treatment solution applied were as in Example 1. (6) Amount of treatment solution applied: 10 ml/specimen for leaf spraying, 50 ml/specimen for fertigation Method of Drying Stress Tolerance Imparting Test Five tomato specimens as prepared above were planted in a 60-cm planter placed on a plant culture rack in an air-conditioned room. […] From immediately after planting the tomatoes, a treatment solution of Table 1 was sprayed onto the leaves or applied to the underground portions once a week. […] Five specimens (per planter) were prepared for each of the test plot and the control plots, plant bodies were collected 3 weeks after the beginning of the test such that the roots were not cut, the soil was washed away with running water, the fresh plant body-weights were measured, and a plant stress level and an extent of imparting plant stress tolerance were calculated according to Formula (ii) and (iii) above using the average of the weights.

[6] abbreviates: pF 2.3, leaf, 100 ppm once a week.
[7] abbreviates: pF 2.3, leaf, 1 ppm once a week.
[8] abbreviates: pF 2.3, leaf, 10 ppm once a week.
The mark [9] stands for this setting: pF 2.3, leaf, 1000 ppm once a week.
[10] abbreviates: pF 2.3, underground portion, 100 ppm once a week.
Setting [11] is: pF 2.5, leaf, 100 ppm once a week.
[12] abbreviates: pF 2.5, underground portion, 100 ppm once a week.
The mark [13] stands for this setting: pF 2.9, leaf, 100 ppm once a week.
Where [14] appears, read: pF 2.9, underground portion, 100 ppm once a week.

The source of these data is patent publication US20110100079A1, “METHOD FOR IMPARTING STRESS TOLERANCE TO PLANT” (priority 2007, published 2011).

As for “Alkyl (C12-14) polyglycoside [Product of present invention 16]”, the “Extent of imparting plant stress tolerance” value (“Extent” below) in the experiment with “Momotaro” tomato [1] (leaf, 100 ppm) was 117%; in the experiment on “Momotaro” tomato [2] (NaCl 3510 ppm, leaf, 100 ppm), 115%; in the experiment with “Momotaro” tomato [3] (32° C., leaf, 100 ppm) it was 116%; in experiment [4] (setting [6]), 121%; in the experiment with “Momotaro” tomato [5] (setting [6]), 118%.

Consider “POE (20) sorbitan monooleic acid ester [Product of present invention 1]”, for which the “Extent” value was 112% in the experiment on “Momotaro” tomato [1] (leaf, 1 ppm); 113% in the experiment with “Momotaro” tomato [1] (leaf, 10 ppm); 113% in the experiment on “Momotaro” tomato [1] (leaf, 100 ppm); 119% in the experiment with “Momotaro” tomato [1] (leaf, 1000 ppm); 130% in the experiment on “Momotaro” tomato [1] (underground portion, 100 ppm); 113% in the experiment with “Momotaro” tomato [2] (NaCl 1500 ppm, leaf, 100 ppm). In addition, the “Extent” value in the experiment with “Momotaro” tomato [2] (NaCl 1500 ppm, underground portion, 100 ppm) is 124%; with “Momotaro” tomato [2] (NaCl 3510 ppm, leaf, 1 ppm), 111%; in the experiment with “Momotaro” tomato [2] (NaCl 3510 ppm, leaf, 10 ppm) it was 112%; with “Momotaro” tomato [2] (NaCl 3510 ppm, leaf, 100 ppm) it was 113%; in the experiment on “Momotaro” tomato [2] (NaCl 3510 ppm, leaf, 1000 ppm) it was 118%; with “Momotaro” tomato [2] (NaCl 3510 ppm, underground portion, 100 ppm) it was 130%. For the same substance, the “Extent” value in the experiment with “Momotaro” tomato [2] (NaCl 5000 ppm, leaf, 100 ppm) was found to be 125%; in the experiment with “Momotaro” tomato [2] (NaCl 5000 ppm, underground portion, 100 ppm), 135%; with “Momotaro” tomato [3] (10° C., leaf, 100 ppm), 125%; in the experiment on “Momotaro” tomato [3] (10° C., underground portion, 100 ppm), 140%; in the experiment with “Momotaro” tomato [3] (15° C., leaf, 100 ppm) it was 117%; in the experiment on “Momotaro” tomato [3] (15° C., underground portion, 100 ppm), 130%. For the same substance, the “Extent” value in the experiment with “Momotaro” tomato [3] (32° C., leaf, 1 ppm) is given as 113%; in the experiment with “Momotaro” tomato [3] (32° C., leaf, 10 ppm), 113%; with “Momotaro” tomato [3] (32° C., leaf, 100 ppm), 114%; in the experiment on “Momotaro” tomato [3] (32° C., leaf, 1000 ppm), 119%; with “Momotaro” tomato [3] (32° C., underground portion, 100 ppm), 127%; in experiment [4] (setting [7]) it was 112%. Moreover, the “Extent” value in experiment [4] (setting [8]) is 113%; in experiment [4] (setting [6]), 113%; in experiment [4] (setting [9]), 119%; in experiment [4] (setting [10]) it was 134%; in experiment [4] (setting [11]), 115%; in experiment [4] (setting [12]), 127%. For the same substance, the “Extent” value is 124% in experiment [4] (setting [13]); 134% in experiment [4] (setting [14]); 112% with “Momotaro” tomato [5] (setting [7]); 113% with “Momotaro” tomato [5] (setting [8]); 113% in the experiment with “Momotaro” tomato [5] (setting [6]); 117% in the experiment with “Momotaro” tomato [5] (setting [9]). The “Extent” value came to 129% with “Momotaro” tomato [5] (setting [10]); 117% with “Momotaro” tomato [5] (setting [11]); 128% with “Momotaro” tomato [5] (setting [12]); 124% with “Momotaro” tomato [5] (setting [13]); 135% with “Momotaro” tomato [5] (setting [14]).

In the case of “POE (6) sorbitan monooleic acid ester [Product of present invention 10]”, the “Extent” value in the experiment on “Momotaro” tomato [1] (leaf, 100 ppm) was determined as 112%; with “Momotaro” tomato [2] (NaCl 3510 ppm, leaf, 100 ppm) it was 113%; in the experiment with “Momotaro” tomato [3] (32° C., leaf, 100 ppm), 114%; in experiment [4] (setting [6]), 113%; in the experiment with “Momotaro” tomato [5] (setting [6]), 112%.

In the case of “Sucrose fatty acid ester (C16, HLB = 15) [Product of present invention 21]”, the “Extent” value in the experiment with “Momotaro” tomato [1] (leaf, 100 ppm) was determined as 117%; with “Momotaro” tomato [2] (NaCl 3510 ppm, leaf, 100 ppm), 114%; in the experiment with “Momotaro” tomato [3] (32° C., leaf, 100 ppm), 116%; in experiment [4] (setting [6]) it was 118%; with “Momotaro” tomato [5] (setting [6]), 117%.

As for “Sucrose fatty acid ester (C18, HLB = 11) [Product of present invention 19]”, the “Extent” value worked out at 114% in the experiment on “Momotaro” tomato [1] (leaf, 100 ppm); 113% with “Momotaro” tomato [2] (NaCl 3510 ppm, leaf, 100 ppm); 114% with “Momotaro” tomato [3] (32° C., leaf, 100 ppm); 117% in experiment [4] (setting [6]); 115% with “Momotaro” tomato [5] (setting [6]).

Take “Sucrose fatty acid ester (C18, HLB = 9) [Product of present invention 18]”: the “Extent” value with “Momotaro” tomato [1] (leaf, 100 ppm) is recorded as 113%; with “Momotaro” tomato [2] (NaCl 3510 ppm, leaf, 100 ppm), 112%; in the experiment with “Momotaro” tomato [3] (32° C., leaf, 100 ppm) it was 113%; in experiment [4] (setting [6]), 115%; in the experiment on “Momotaro” tomato [5] (setting [6]), 113%.
